In patent US20240216372A1, “THERAPEUTICS FOR KELOIDS AND OTHER FIBROTIC DISORDERS” (Florida State University Research Foundation, Inc., priority 2022, published 2024):

Key:
[1] = test system: keloid dermal fibroblasts; test: keloid fibroblast proliferation; assay type: cell-based, human; settings: for effect on keloid fibroblast proliferation / sensitivity of keloid dermal fibroblasts to the drug (effective concentration range): patient-derived keloid dermal fibroblasts; for sensitivity of keloid fibroblasts compared to normal HDFs: keloid fibroblasts versus normal HDFs
[2] = test system: Insulin-like Growth Factor 2 (IGF2) signaling; settings: general statement, no test described; cited from earlier work
[3] = test system: normal primary human dermal fibroblasts (HDFs); test: normal HDF proliferation; assay type: cell-based

Row | Structure (SMILES) | effect on keloid fibroblast proliferation [1] | sensitivity of keloid dermal fibroblasts to the drug (effective concentration range) [1] | effective range as inhibitor of IGF2 signaling [2] | sensitivity of keloid fibroblasts compared to normal HDFs [1] | sensitivity / proliferation of normal HDFs [3]
1 | CN(C)c1ccc2c(c1)OC(N)=C(C#N)C2c1cccc(C(F)(F)F)c1 (stereo not drawn) [Chromeceptin] | blocks keloid fibroblast proliferation | sensitive | low nanomolar range |  | 
2 | COc1cc(/C=C/C(=O)CC(=O)/C=C/c2ccc(O)c(OC)c2)ccc1O [Curcumin] |  |  |  | much more sensitive | 
3 | CNC(=O)Nc1ccc2c(c1)CC[C@@]21OC(=O)N(CC(=O)N(Cc2ccc(F)cc2)[C@@H](C)C(F)(F)F)C1=O [A485] |  |  |  | much more sensitive | 
4 | COc1ccc(CCN(C)CCCC(C#N)(c2ccc(OC)c(OC)c2)C(C)C)cc1OC (stereo not drawn) [Verapamil] | inhibits the proliferation of keloid fibroblasts |  |  |  | 
5 | O=C(O)C(=O)c1cn(Cc2ccccc2)c2ccc(-c3ccc(OC(F)(F)F)cc3)cc12 [Tiplaxtinin] |  | low micromolar range |  | preferentially blocks keloid fibroblast proliferation over normal HDF proliferation | not significantly sensitive
